Measurements reported in the NIST ThermoML archive (doi:10.1021/je700265d).
“And” between values parts separate entries of the source, which are not always exact repeats. Equal entries are not always repeated.

Assay: mn = molality of the nth substance listed, in mol/kg
Conditions: Liquid, Vibrating tube method

[Na+].[OH-] [sodium hydroxide] + O
mass density
Conditions	2000 kPa	10000 kPa
323.15 K, m1 = 0.09892	993.08 kg/m3 [middle of 4 runs]	–
323.15 K, m1 = 0.1004	–	996.538 kg/m3 and 996.527 kg/m3
323.15 K, m1 = 0.1011	–	996.561 kg/m3 and 996.552 kg/m3
323.15 K, m1 = 0.1999	997.265 kg/m3	–
323.15 K, m1 = 0.2008	–	1000.68 kg/m3 and 1000.69 kg/m3
323.15 K, m1 = 0.4993	–	1012.82 kg/m3
323.15 K, m1 = 0.4998	1009.52 kg/m3 and 1009.53 kg/m3	–
323.15 K, m1 = 1.002	–	1032.59 kg/m3
323.15 K, m1 = 1.006	1029.58 kg/m3 and 1029.59 kg/m3	–
323.15 K, m1 = 1.998	–	1069.82 kg/m3
323.15 K, m1 = 2.006	1067.14 kg/m3	–
323.15 K, m1 = 2.994	1102.23 kg/m3 and 1102.25 kg/m3	–
323.15 K, m1 = 2.999	–	1104.9 kg/m3
323.15 K, m1 = 4	1135.56 kg/m3 and 1135.59 kg/m3	1137.82 kg/m3
323.15 K, m1 = 4.927	1164.37 kg/m3 and 1164.36 kg/m3	–
323.15 K, m1 = 5.002	–	1168.71 kg/m3
323.15 K, m1 = 5.963	1194.98 kg/m3	–
323.15 K, m1 = 5.984	–	1197.21 kg/m3
323.15 K, m1 = 6.887	1219.57 kg/m3	–
323.15 K, m1 = 6.998	–	1224.73 kg/m3
323.15 K, m1 = 8	1248.12 kg/m3	–
323.15 K, m1 = 8.191	–	1254.93 kg/m3
373.15 K, m1 = 0.1071	–	967.434 kg/m3 and 967.432 kg/m3
373.15 K, m1 = 0.2063	–	971.522 kg/m3
373.15 K, m1 = 0.5006	–	983.362 kg/m3
373.15 K, m1 = 1.007	–	1003.1 kg/m3
373.15 K, m1 = 1.998	–	1039.6 kg/m3
373.15 K, m1 = 3	–	1074.35 kg/m3
373.15 K, m1 = 3.968	–	1105.88 kg/m3
373.15 K, m1 = 4.987	–	1137.02 kg/m3
373.15 K, m1 = 5.995	–	1165.76 kg/m3
373.15 K, m1 = 7	–	1192.66 kg/m3 and 1192.78 kg/m3
373.15 K, m1 = 8.191	–	1222.53 kg/m3
423.15 K, m1 = 0.102	–	926.887 kg/m3 and 926.893 kg/m3
423.15 K, m1 = 0.2019	–	931.217 kg/m3
423.15 K, m1 = 0.4993	–	943.749 kg/m3
423.15 K, m1 = 1.004	–	964.154 kg/m3
423.15 K, m1 = 2.002	–	1002.15 kg/m3
423.15 K, m1 = 3.005	–	1037.71 kg/m3
423.15 K, m1 = 4.007	–	1070.87 kg/m3
423.15 K, m1 = 5.013	–	1101.94 kg/m3 and 1102 kg/m3
423.15 K, m1 = 5.983	–	1129.99 kg/m3
423.15 K, m1 = 6.994	–	1157.33 kg/m3
423.15 K, m1 = 7.997	–	1182.78 kg/m3
473.15 K, m1 = 0.1008	–	875.988 kg/m3 and 876.005 kg/m3 and 876.003 kg/m3
473.15 K, m1 = 0.1998	–	880.725 kg/m3
473.15 K, m1 = 0.498	–	894.456 kg/m3 and 894.426 kg/m3
473.15 K, m1 = 1	–	916.262 kg/m3
473.15 K, m1 = 1.996	–	956.424 kg/m3 and 956.451 kg/m3
473.15 K, m1 = 3.001	–	993.727 kg/m3
473.15 K, m1 = 3.979	–	1027.36 kg/m3
473.15 K, m1 = 4.99	–	1059.7 kg/m3
473.15 K, m1 = 5.981	–	1089.06 kg/m3
473.15 K, m1 = 6.966	–	1116.25 kg/m3 and 1116.27 kg/m3
473.15 K, m1 = 7.982	–	1142.4 kg/m3
523.15 K, m1 = 0.1	–	811.722 kg/m3 and 811.711 kg/m3
523.15 K, m1 = 0.2004	–	817.364 kg/m3
523.15 K, m1 = 0.4995	–	833.124 kg/m3 and 833.104 kg/m3
523.15 K, m1 = 1.002	–	857.633 kg/m3 and 857.68 kg/m3
523.15 K, m1 = 2.005	–	902.001 kg/m3
523.15 K, m1 = 3.005	–	942.171 kg/m3
523.15 K, m1 = 3.999	–	977.951 kg/m3
523.15 K, m1 = 5.003	–	1011.55 kg/m3
523.15 K, m1 = 6.005	–	1042.56 kg/m3 and 1042.64 kg/m3
523.15 K, m1 = 7.002	–	1071.15 kg/m3 and 1071.04 kg/m3
523.15 K, m1 = 7.999	–	1097.71 kg/m3 and 1097.55 kg/m3
573.15 K, m1 = 0.1122	–	724.654 kg/m3 and 724.632 kg/m3
573.15 K, m1 = 0.2173	–	732.398 kg/m3 and 732.406 kg/m3
573.15 K, m1 = 0.5495	–	754.575 kg/m3 and 754.588 kg/m3
573.15 K, m1 = 1.105	–	787.201 kg/m3 and 787.19 kg/m3
573.15 K, m1 = 1.996	–	832.976 kg/m3 and 833.161 kg/m3
573.15 K, m1 = 3.004	–	878.767 kg/m3
573.15 K, m1 = 3.998	–	918.89 kg/m3
573.15 K, m1 = 4.999	–	955.585 kg/m3
573.15 K, m1 = 6.004	–	989.12 kg/m3
573.15 K, m1 = 6.999	–	1019.78 kg/m3
573.15 K, m1 = 7.997	–	1047.99 kg/m3
